Laboratory results from BindingDB's records for doi:10.1016/j.bioorg.2017.03.012 (Alexandria University, 2017).

Key:
[1] = biological target: T1, Prostaglandin G/H synthase 1 (Ovis aries, UniProt P05979); experiment: In Vitro COX-1 and COX-2 Inhibitory Assay
T1 sequence (P05979 whole entry): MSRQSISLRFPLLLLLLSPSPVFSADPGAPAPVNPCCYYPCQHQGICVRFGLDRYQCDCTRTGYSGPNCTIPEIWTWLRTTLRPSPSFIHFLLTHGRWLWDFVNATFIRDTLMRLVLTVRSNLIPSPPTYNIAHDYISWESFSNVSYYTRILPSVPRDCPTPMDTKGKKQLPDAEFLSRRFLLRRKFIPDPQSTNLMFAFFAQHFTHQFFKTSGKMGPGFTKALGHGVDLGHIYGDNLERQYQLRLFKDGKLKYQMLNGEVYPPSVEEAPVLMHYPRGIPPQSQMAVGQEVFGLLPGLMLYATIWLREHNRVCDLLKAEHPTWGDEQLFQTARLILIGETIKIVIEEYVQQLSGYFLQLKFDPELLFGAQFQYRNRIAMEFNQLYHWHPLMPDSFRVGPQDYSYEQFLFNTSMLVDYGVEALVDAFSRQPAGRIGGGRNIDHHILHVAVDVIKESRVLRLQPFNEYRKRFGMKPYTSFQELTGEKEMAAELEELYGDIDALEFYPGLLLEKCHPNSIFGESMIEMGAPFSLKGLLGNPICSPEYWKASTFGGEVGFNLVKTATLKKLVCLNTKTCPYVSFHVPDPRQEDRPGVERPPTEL

[2] = biological target: T2, Prostaglandin G/H synthase 2 (Ovis aries, UniProt P79208); experiment: In Vitro COX-1 and COX-2 Inhibitory Assay
T2 sequence (P79208 whole entry): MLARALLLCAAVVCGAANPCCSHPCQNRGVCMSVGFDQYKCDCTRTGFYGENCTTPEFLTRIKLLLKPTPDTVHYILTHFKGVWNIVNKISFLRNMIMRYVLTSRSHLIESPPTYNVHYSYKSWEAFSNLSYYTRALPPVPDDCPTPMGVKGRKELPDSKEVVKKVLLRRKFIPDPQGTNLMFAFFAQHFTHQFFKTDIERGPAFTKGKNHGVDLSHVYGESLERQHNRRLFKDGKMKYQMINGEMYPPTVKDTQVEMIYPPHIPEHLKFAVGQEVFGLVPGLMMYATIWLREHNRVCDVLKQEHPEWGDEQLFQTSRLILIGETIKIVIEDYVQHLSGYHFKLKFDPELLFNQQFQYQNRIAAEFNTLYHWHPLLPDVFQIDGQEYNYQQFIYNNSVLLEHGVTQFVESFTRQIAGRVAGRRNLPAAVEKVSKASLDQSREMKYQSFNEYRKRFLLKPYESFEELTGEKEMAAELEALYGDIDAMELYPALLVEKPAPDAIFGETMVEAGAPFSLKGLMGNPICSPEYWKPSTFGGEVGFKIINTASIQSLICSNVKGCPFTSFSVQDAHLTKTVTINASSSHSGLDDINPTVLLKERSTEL

[3] = biological target: T3, Polyunsaturated fatty acid 5-lipoxygenase (Homo sapiens, UniProt P09917); experiment: In Vitro Lipoxygenase (LOX) Inhibitory Assay
T3 sequence (P09917 whole entry): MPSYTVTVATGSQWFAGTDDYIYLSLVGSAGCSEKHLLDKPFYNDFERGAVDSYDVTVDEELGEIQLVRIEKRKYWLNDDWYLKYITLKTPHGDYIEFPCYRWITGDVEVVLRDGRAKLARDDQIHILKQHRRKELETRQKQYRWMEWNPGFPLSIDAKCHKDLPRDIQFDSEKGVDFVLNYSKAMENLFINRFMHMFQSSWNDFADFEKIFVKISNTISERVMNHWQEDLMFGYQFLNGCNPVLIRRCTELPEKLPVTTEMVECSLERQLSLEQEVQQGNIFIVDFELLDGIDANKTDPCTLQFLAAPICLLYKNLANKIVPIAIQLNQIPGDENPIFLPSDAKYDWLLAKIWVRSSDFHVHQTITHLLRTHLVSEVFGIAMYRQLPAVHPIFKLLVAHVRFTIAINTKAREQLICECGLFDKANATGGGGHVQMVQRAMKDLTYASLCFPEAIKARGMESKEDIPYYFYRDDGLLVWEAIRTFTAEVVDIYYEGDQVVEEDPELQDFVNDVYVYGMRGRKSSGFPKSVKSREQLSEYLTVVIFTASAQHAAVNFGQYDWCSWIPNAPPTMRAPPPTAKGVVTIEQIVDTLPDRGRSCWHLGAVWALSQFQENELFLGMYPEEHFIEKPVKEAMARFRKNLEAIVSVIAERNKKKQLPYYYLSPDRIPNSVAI
Procedure: All the newly synthesized compounds were also evaluated in vitro for their ability to inhibit lipoxygenase enzyme. This was carried out using Abnova lipoxygenase inhibitor screening assay kit (Catalog No. (KA1329). Inhibitors were dissolved in DMSO and were added to the assay in a final volume of 10 μl before initiating with substrate. Three concentrations were prepared (25, 50 and 100 μM) and the concentration that produced 50% enzyme inhibition was determined according to manufacturer instructions [Plačkov et al., Free Radic. Biol. Med., 97:223-235].

| SMILES | IC50 [1] [µM] | IC50 [2] [µM] | IC50 [3] [µM] |
| --- | --- | --- | --- |
| O=C(NN1C(=O)/C(=C/c2ccc(Cl)cc2)SC1=S)c1sc2ccccc2c1Cl [3-Chloro-N-[5-(4-chlorobenzylidene)-4-oxo-2-thioxothiazolidin-3-yl]benzo[b]thiophene-2-carboxamide (5f)] | 4.9 | 1.23 | 3.74 |
| O=C(NN1C(=O)/C(=C/c2cn(-c3ccccc3)nc2-c2ccccc2)SC1=S)c1sc2ccccc2c1Cl [3-Chloro-N-{5-[(1,3-diphenyl-1H-pyrazol-4-yl)methylene]-4-oxo-2-thioxothiazolidin-3-yl}benzo[b]thiophene-2-carboxamide (5a)] | 5.1 | 1.49 | 3.97 |
| Cc1ccc(Cl)c(Nc2ccccc2C(=O)O)c1Cl | – | – | 5.64 |
| O=C(NN1C(=O)CSC1=S)c1sc2ccccc2c1Cl [3-Chloro-N-(4-oxo-2-thioxothiazolidin-3-yl)benzo[b]thiophene-2-carboxamide (4)] | 8.7 | 2.43 | 6.87 |
| COc1ccc(/C=C2\SC(=S)N(NC(=O)c3sc4ccccc4c3Cl)C2=O)cc1OC [3-Chloro-N-[5-(3,4-dimethoxybenzylidene)-4-oxo-2-thioxothiazolidin-3-yl]benzo [b]thiophene-2-carboxamide (5h)] | 3.4 | – | – |
| COc1ccc(/C=C2\SC(=S)N(NC(=O)c3sc4ccccc4c3Cl)C2=O)cc1 [3-Chloro-N-[5-(4-methoxybenzylidene)-4-oxo-2-thioxothiazolidin-3-yl]benzo[b]thiophene-2-carboxamide (5e)] | 6.3 | 1.89 | 4.97 |
| COc1ccc(-c2nn(-c3ccccc3)cc2/C=C2\SC(=S)N(NC(=O)c3sc4ccccc4c3Cl)C2=O)cc1 [3-Chloro-N-(5-{[3-(4-methoxyphenyl)-1-phenyl-1H-pyrazol-4-yl]methylene}-4-oxo-2-thioxothiazolidin-3-yl)benzo[b]thiophene-2-carboxamide (5b)] | 7.6 | 2.61 | 8.71 |
| Cc1ccc(-c2cc(C(F)(F)F)nn2-c2ccc(S(N)(=O)=O)cc2)cc1 [Celecoxib] | – | – | 6.87 |
| COc1cc(/C=C2\SC(=S)N(NC(=O)c3sc4ccccc4c3Cl)C2=O)ccc1O [3-Chloro-N-[5-(4-hydroxy-3-methoxybenzylidene)-4-oxo-2-thioxothiazolidin-3-yl]benzo [b]thiophene-2-carboxamide (5g)] | 10.4 | 4.22 | 6.91 |
| O=C1Nc2ccccc2/C1=C1\SC(=S)N(NC(=O)c2sc3ccccc3c2Cl)C1=O [3-Chloro-N-[4-oxo-5-(2-oxoindolin-3-ylidene)-2-thioxothiazolidin-3-yl]benzo[b]thiophene-2-carboxamide (5i)] | 5.9 | 1.56 | 6.87 |
| O=C(NN1C(=O)CSC1=S)c1cc2ccccc2o1 [N-(4-Oxo-2-thioxothiazolidin-3-yl)benzofuran-2-carboxamide (9)] | 6.8 | 1.83 | 5.92 |

Further lines, results first:

| IC50 [1] [µM] | IC50 [2] [µM] | IC50 [3] [µM] | SMILES |
| --- | --- | --- | --- |
| 10.6 | 3.12 | 8.74 | O=C(NN1C(=O)/C(=C/c2ccccc2)SC1=S)c1sc2ccccc2c1Cl [N-(5-Benzylidene-4-oxo-2-thioxothiazolidin-3-yl)-3-chlorobenzo[b]thiophene-2-carboxamide (5d)] |
| 13.4 | 5.32 | 10.2 | O=C(NN1C(=O)/C(=C/c2cn(-c3ccccc3)nc2-c2ccc(Br)cc2)SC1=S)c1cc2ccccc2o1 [N-(5-{[3-(4-Bromophenyl)-1-phenyl-1H-pyrazol-4-yl]methylene}-4-oxo-2-thioxothiazolidin-3-yl)benzofuran-2-carboxamide (10c)] |
| 8.7 | 2.74 | 6.91 | COc1ccc(-c2nn(-c3ccccc3)cc2/C=C2\SC(=S)N(NC(=O)c3cc4ccccc4o3)C2=O)cc1 [N-(5-{[3-(4-Methoxyphenyl)-1-phenyl-1H-pyrazol-4-yl]methylene}-4-oxo-2-thioxothiazolidin-3-yl)benzofuran-2-carboxamide (10b)] |
| 12.4 | 4.88 | 9.51 | O=C(NN1C(=O)/C(=C/c2cn(-c3ccccc3)nc2-c2ccc(Br)cc2)SC1=S)c1sc2ccccc2c1Cl [N-(5-{[3-(4-Bromophenyl)-1-phenyl-1H-pyrazol-4-yl]methylene}-4-oxo-2-thioxothiazolidin-3-yl)-3-chlorobenzo[b]thiophene-2-carboxamide (5c)] |
| 12.4 | 4.81 | 9.21 | O=C(NN1C(=O)/C(=C/c2cn(-c3ccccc3)nc2-c2ccccc2)SC1=S)c1cc2ccccc2o1 [N-{5-[(1,3-Diphenyl-1H-pyrazol-4-yl)methylene]-4-oxo-2-thioxothiazolidin-3-yl}benzofuran2-carboxamide (10a)] |
